Laboratory results: US4539149A, “β-Lactam antibacterial agents” (Beecham Group p.l.c., priority 1981, dated 1985)
Structures can show the parent of a compound that is named as a salt.

Legend:
P. mirabilis 889 = assay: MIC against P. mirabilis 889; type: cell-based; settings: Proteus mirabilis, 889, P. mirabilis 889
E. coli 96 R- = assay: in vivo test in mice against experimental infection, E. coli 96 R-; settings: Escherichia coli, sc, mice (5 mice/group), s.c., dosed at 1 and 5 hours after infection, read-out: Total s.c. CD50
Protocol: (§1) The compound of Example 5 was tested in vivo in mice against experimental infections.
(§2) Organism Total* s.c. CD50 (Mg/Kg)
(§3) *dosed at 1 and 5 hours after infection

E. coli 96 R+ = assay: in vivo test in mice against experimental infection, E. coli 96 R+; settings: Escherichia coli, sc, mice (5 mice/group), s.c., dosed at 1 and 5 hours after infection, read-out: Total s.c. CD50
Protocol: as §1, §2, §3

K. aerogenes T767 = assay: in vivo test in mice against experimental infection, K. aerogenes T767; settings: Klebsiella aerogenes, sc, mice (5 mice/group), s.c., dosed at 1 and 5 hours after infection, read-out: Total s.c. CD50
Protocol: as §1, §2, §3

[1] = blood concentration in mice after subcutaneous administration; type: in vivo; settings: mouse, sc, mice (5), 50 mg/kg
Protocol: The compound of Example 5 was administered to mice (5) by the subcutaneous route at a dosage of 50 mg/kg and the blood concentration determined.

CCN1CCN(C(=O)N[C@@H](C(=O)N[C@]2(NC=O)C(=O)N3[C@@H](C(=O)O)C(C)(C)S[C@@H]32)c2ccc(O)cc2)C(=O)C1=O [Example 5, 6α-Formamido-6β-[D-2-[(4-ethyl-2,3-dioxopiperazin-1-yl)carbonylamino]-2-(4-hydroxyphenyl)acetamido]penicillanic acid, sodium salt]
MIC (P. mirabilis 889): 0.1 µg/mL
ED50 (E. coli 96 R-): < 3.1 mg/kg
ED50 (E. coli 96 R+): 5.2 mg/kg
ED50 (K. aerogenes T767): 3.7 mg/kg
AUC [1]: 11000 ng·h/mL
concentration at 5 min ([1]; 5 mins): 24400 ng/mL
concentration at 10 min ([1]; 10 mins): 23200 ng/mL
concentration at 20 min ([1]; 20 mins): 14500 ng/mL
concentration at 0.5 h ([1]; 30 mins): 11000 ng/mL
concentration at 1 h ([1]; 60 mins): < 900 ng/mL
concentration at 2 h ([1]; 120 mins): < 900 ng/mL
